# Measurements published in paper PMC12663243 (Scientific Reports, 2025).
# Where a name gives a salt, the structure may show the parent alone. Positions of bridges follow the written chain, without caps; N, C: chain ends. Non-standard residues stand in square brackets, D forms with d. Residues, ends and D or L forms follow the SMILES beside them. Hyp = O=C(O)[C@@H]1C[C@@H](O)CN1
# Assays:
# human SSTR4 [1] = target: T1, human SSTR4 (Homo sapiens, UniProt P31391); type: cell-based
# human SSTR1 = human SSTR1 (Homo sapiens, UniProt P30872); type: cell-based
# human SSTR4 [2] = target: T1, human SSTR4; assay: cell-based
# SSTR4 = conditions: binding assays ref 48; cited from earlier work
# C57Bl/6j mice = conditions: mouse, in vivo, ip, 5 mg/kg
# T1 sequence (P31391 whole entry): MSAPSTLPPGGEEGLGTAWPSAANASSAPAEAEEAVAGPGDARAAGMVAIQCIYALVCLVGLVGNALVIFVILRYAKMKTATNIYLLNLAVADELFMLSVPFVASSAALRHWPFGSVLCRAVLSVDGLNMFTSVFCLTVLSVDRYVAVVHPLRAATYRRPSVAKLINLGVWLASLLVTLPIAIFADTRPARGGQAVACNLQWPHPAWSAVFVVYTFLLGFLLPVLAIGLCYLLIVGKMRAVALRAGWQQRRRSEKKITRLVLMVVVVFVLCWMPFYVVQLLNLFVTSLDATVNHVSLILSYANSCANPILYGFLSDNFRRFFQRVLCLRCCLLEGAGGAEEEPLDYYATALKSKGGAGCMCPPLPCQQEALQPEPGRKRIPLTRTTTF
# human SSTR1, sequence (P30872 whole entry): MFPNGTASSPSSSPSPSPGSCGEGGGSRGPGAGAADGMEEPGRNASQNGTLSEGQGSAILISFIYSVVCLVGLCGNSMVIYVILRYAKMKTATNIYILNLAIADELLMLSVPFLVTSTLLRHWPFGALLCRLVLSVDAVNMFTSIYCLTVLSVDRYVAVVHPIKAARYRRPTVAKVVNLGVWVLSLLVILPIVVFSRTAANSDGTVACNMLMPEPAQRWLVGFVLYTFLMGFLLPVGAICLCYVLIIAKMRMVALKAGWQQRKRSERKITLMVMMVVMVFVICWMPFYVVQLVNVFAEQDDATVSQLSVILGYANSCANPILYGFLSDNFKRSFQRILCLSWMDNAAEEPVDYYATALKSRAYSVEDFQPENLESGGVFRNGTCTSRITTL
compound,measurement,setting,value
CC(C)C[C@H](NC(=O)[C@@H]1C[C@@H](O)CN1C(=O)[C@@H]1CSSC[C@H](NC(=O)[C@@H](NC(=O)[C@@H]2CCCN2)C(C)C)C(=O)N[C@@H](C)C(=O)N[C@@H](CCCCN)C(=O)N[C@@H](Cc2ccccc2)C(=O)NCC(=O)N1)C(=O)O [Fj1A1] (H-PVCAKFGC[Hyp]L-OH; disulfide 3-8; N-terminus assumed),decrease in potency at SSTR4,human SSTR4 [1],5000 fold
CC(C)C[C@H](NC(=O)[C@@H]1C[C@@H](O)CN1C(=O)[C@@H]1CSSC[C@H](NC(=O)[C@@H](NC(=O)[C@@H]2CCCN2)C(C)C)C(=O)N[C@H](Cc2c[nH]c3ccccc23)C(=O)N[C@@H](CCCCN)C(=O)N[C@@H](C)C(=O)NCC(=O)N1)C(=O)O [Fj1A3] (H-PVC[dW]KAGC[Hyp]L-OH; disulfide 3-8; N-terminus assumed),decrease in potency at SSTR4,human SSTR4 [1],630 fold
CC(C)C[C@H](NC(=O)[C@@H]1C[C@@H](O)CN1C(=O)[C@@H]1CSSC[C@H](NC(=O)[C@@H](NC(=O)[C@@H]2CCCN2)C(C)C)C(=O)N[C@H](Cc2c[nH]c3ccccc23)C(=O)N[C@@H](CCCCN)C(=O)N[C@@H](Cc2ccccc2)C(=O)N[C@@H](C)C(=O)N1)C(=O)O [Fj1A4] (H-PVC[dW]KFAC[Hyp]L-OH; disulfide 3-8; N-terminus assumed),increase in potency at SSTR4,human SSTR4 [1],6.2 fold
CC(C)C[C@H](NC(=O)[C@@H]1CCCN1C(=O)[C@@H]1CSSC[C@H](NC(=O)[C@@H](NC(=O)[C@@H]2CCCN2)C(C)C)C(=O)N[C@H](Cc2c[nH]c3ccccc23)C(=O)N[C@@H](CCCCN)C(=O)N[C@@H](Cc2ccccc2)C(=O)NCC(=O)N1)C(=O)O [Fj1A7] (H-PVC[dW]KFGCPL-OH; disulfide 3-8; N-terminus assumed),effect on SSTR1 potency,human SSTR1,increase in SSTR1 potency
same,effect on SSTR4 potency,human SSTR4 [1],virtually no effect
CC(C)C[C@H](NC(=O)[C@@H]1C[C@@H](O)CN1C(=O)[C@@H]1CSSC[C@H](NC(=O)[C@@H](NC(=O)[C@@H]2CCCN2)C(C)C)C(=O)N[C@H](Cc2c[nH]c3ccccc23)C(=O)N[C@@H](CCCCN)C(=O)N[C@H](Cc2ccccc2)C(=O)NCC(=O)N1)C(=O)O [Fj1A8] (H-PVC[dW]K[dF]GC[Hyp]L-OH; disulfide 3-8; N-terminus assumed),decrease in potency at SSTR4,human SSTR4 [1],42 fold
"NCCCC[C@@H]1NC(=O)[C@@H](Cc2c[nH]c3ccccc23)NC(=O)[C@@H](N)CSSC[C@@H](C(=O)O)NC(=O)CNC(=O)[C@H](Cc2ccccc2)NC1=O [Fj1A9, Cys3-D-Trp4-Lys5-Phe6-Gly7-Cys8] (H-C[dW]KFGC-OH; disulfide 1-6; N-terminus assumed)",decrease in potency at SSTR4,human SSTR4 [1],47 fold
CC(C)C[C@H](NC(=O)[C@@H]1C[C@@H](O)CN1C(=O)[C@@H]1CSSC[C@H](N)C(=O)N[C@H](Cc2c[nH]c3ccccc23)C(=O)N[C@@H](CCCCN)C(=O)N[C@@H](Cc2ccccc2)C(=O)NCC(=O)N1)C(=O)O [Fj1A10] (H-C[dW]KFGC[Hyp]L-OH; disulfide 1-6; N-terminus assumed),decrease in potency at SSTR4,human SSTR4 [1],13 fold
CC(C)[C@H](NC(=O)[C@@H]1CCCN1)C(=O)N[C@H]1CSSC[C@@H](C(=O)O)NC(=O)CNC(=O)[C@H](Cc2ccccc2)NC(=O)[C@H](CCCCN)NC(=O)[C@@H](Cc2c[nH]c3ccccc23)NC1=O [Fj1A11] (H-PVC[dW]KFGC-OH; disulfide 3-8; N-terminus assumed),effect on SSTR4 potency,human SSTR4 [1],virtually equipotent
CC(C)C[C@H](NC(=O)[C@@H]1C[C@@H](O)CN1C(=O)[C@@H]1CSSC[C@H](NC(=O)[C@H](Cc2ccccc2)NC(=O)[C@@H](N)CC(C)C)C(=O)N[C@H](Cc2c[nH]c3ccccc23)C(=O)N[C@@H](CCCCN)C(=O)N[C@@H](Cc2ccccc2)C(=O)NCC(=O)N1)C(=O)O [Fj1A13] (H-LFC[dW]KFGC[Hyp]L-OH; disulfide 3-8; N-terminus assumed),increase in potency at SSTR4,human SSTR4 [1],11 fold
CC(C)[C@H](NC(=O)[C@@H]1CCCN1)C(=O)N[C@H]1CSSC[C@@H](C(=O)N[C@@H](Cc2c[nH]c3ccccc23)C(=O)O)NC(=O)CNC(=O)[C@H](Cc2ccccc2)NC(=O)[C@H](CCCCN)NC(=O)[C@@H](Cc2c[nH]c3ccccc23)NC1=O [Fj1A14] (H-PVC[dW]KFGCW-OH; disulfide 3-8; N-terminus assumed),increase in potency at SSTR4,human SSTR4 [1],85 fold
CC(C)C[C@H](NC(=O)[C@@H]1C[C@@H](O)CN1C(=O)[C@@H]1CSSC[C@H](NC(=O)[C@@H](NC(=O)[C@@H]2CCCN2)C(C)C)C(=O)N[C@H](Cc2c[nH]c3ccccc23)C(=O)N[C@@H](CCCCN)C(=O)N[C@@H](Cc2ccccc2)C(=O)N[C@@H](CO)C(=O)N1)C(=O)O [Fj1A15] (H-PVC[dW]KFSC[Hyp]L-OH; disulfide 3-8; N-terminus assumed),increase in potency at SSTR4,human SSTR4 [1],14 fold
CC(C)C[C@H](NC(=O)[C@@H]1C[C@@H](O)CN1C(=O)[C@@H]1CSSC[C@H](NC(=O)[C@@H](NC(=O)[C@@H]2CCCN2)C(C)C)C(=O)N[C@H](Cc2c[nH]c3ccccc23)C(=O)N[C@@H](CCCCN)C(=O)N[C@@H](Cc2ccccc2)C(=O)N[C@@H]([C@@H](C)O)C(=O)N1)C(=O)O [Fj1A16] (H-PVC[dW]KFTC[Hyp]L-OH; disulfide 3-8; N-terminus assumed),effect on SSTR1 potency,human SSTR1,slight increase in SSTR1 activity
same,effect on SSTR4 potency,human SSTR4 [1],retained the SSTR4 potency of Fj1
CC(C)C[C@H](NC(=O)[C@@H]1C[C@@H](O)CN1C(=O)[C@@H]1CSSC[C@H](NC(=O)[C@@H](NC(=O)[C@@H]2CCCN2)C(C)C)C(=O)N[C@H](Cc2c[nH]c3ccccc23)C(=O)N[C@@H](CCCCN)C(=O)N[C@@H](Cc2ccccc2)C(=O)N[C@@H](CC(N)=O)C(=O)N1)C(=O)O [Fj1A17] (H-PVC[dW]KFNC[Hyp]L-OH; disulfide 3-8; N-terminus assumed),increase in potency at SSTR4,human SSTR4 [1],6.8 fold
CC(C)[C@H](NC(=O)[C@@H]1CCCN1)C(=O)N[C@H]1CSSC[C@@H](C(=O)N[C@@H](Cc2c[nH]c3ccccc23)C(=O)O)NC(=O)[C@H](CO)NC(=O)[C@H](Cc2ccccc2)NC(=O)[C@H](CCCCN)NC(=O)[C@@H](Cc2c[nH]c3ccccc23)NC1=O [Fj1A18] (H-PVC[dW]KFSCW-OH; disulfide 3-8; N-terminus assumed),effect on SSTR4 potency,human SSTR4 [1],well tolerated
CC(C)[C@H](NC(=O)[C@@H]1CCCN1)C(=O)N[C@H]1CSSC[C@@H](C(=O)N[C@@H](Cc2c[nH]c3ccccc23)C(=O)O)NC(=O)[C@H]([C@@H](C)O)NC(=O)[C@H](Cc2ccccc2)NC(=O)[C@H](CCCCN)NC(=O)[C@@H](Cc2c[nH]c3ccccc23)NC1=O [Fj1A19] (H-PVC[dW]KFTCW-OH; disulfide 3-8; N-terminus assumed),effect on SSTR4 potency,human SSTR4 [1],slight decrease in SSTR4 potency
CC(C)[C@H](NC(=O)[C@@H]1CCCN1)C(=O)N[C@H]1CSSC[C@@H](C(=O)N[C@@H](Cc2c[nH]c3ccccc23)C(=O)O)NC(=O)[C@H](CC(N)=O)NC(=O)[C@H](Cc2ccccc2)NC(=O)[C@H](CCCCN)NC(=O)[C@@H](Cc2c[nH]c3ccccc23)NC1=O [Fj1A20] (H-PVC[dW]KFNCW-OH; disulfide 3-8; N-terminus assumed),effect on SSTR4 potency,human SSTR4 [1],slight decrease in SSTR4 potency
CC(C)[C@H](NC(=O)[C@@H]1CSSC[C@H](NC(=O)[C@H](CC(N)=O)NC(=O)[C@@H](N)Cc2ccc(O)cc2)C(=O)N[C@@H](Cc2c[nH]cn2)C(=O)N[C@H](Cc2c[nH]c3ccccc23)C(=O)N[C@@H](CCCCN)C(=O)N[C@@H]([C@@H](C)O)C(=O)N1)C(=O)O [Fj2] (H-YNCH[dW]KTCV-OH; disulfide 3-8; N-terminus assumed),EC50,human SSTR4 [2],2000 nM
Cc1ccc(S(=O)(=O)N[C@@H](CCN)C(=O)N[C@@H](Cc2ccccc2)C(N)=O)c2ccccc12 [J-2156],selectivity for SSTR4 over SSTR1,SSTR4,approximately 360 fold
same,selectivity for SSTR4 over SSTR5,SSTR4,~390 fold
"CN1CC[C@]23c4c5ccc(O)c4O[C@H]2[C@@H](O)C=C[C@H]3[C@H]1C5 [morphine, morphine sulfate]",duration of action,C57Bl/6j mice,shorter
same,peak efficacy,C57Bl/6j mice,higher peak efficacy than Fj1
